Source: the supplement of paper PMC4862054

How the values were obtained:
Assay in all cases: normalised response (% of control), CellTox Green; higher = less cell death (100 = DMSO, 0 = benzethonium chloride kill control)
Details in all cases: incubation time: 72 h
BT-549 = system: BT-549
Summary of the method: (§1)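 Each value is the plate-normalised signal at one concentration of the series. Breast cancer cell lines (20 µl suspension) were incubated 72 h in 384-well plates with compound at 5 concentrations in 10-fold steps over a compound-specific 10,000-fold range. CellTox Green and then CellTiter-Glo were read, and each plate was scaled to 0.1 % DMSO (100) and a positive kill control (0).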

CAL-85-1 = system: CAL-85-1
Summary of the method: as §1

MDA-MB-231 = system: MDA-MB-231
Summary of the method: as §1

CAL-51 = system: CAL-51
Summary of the method: as §1

MDA-MB-453 = system: MDA-MB-453
Summary of the method: as §1

MDA-MB-436 = system: MDA-MB-436
Summary of the method: as §1

MDA-MB-468 = system: MDA-MB-468
Summary of the method: as §1

HCC1937 = system: HCC1937
Summary of the method: as §1

HCC1599 = system: HCC1599
Summary of the method: as §1

HDQ-P1 = system: HDQ-P1
Summary of the method: as §1

BT-474 = system: BT-474
Summary of the method: as §1

CAL-120 = system: CAL-120
Summary of the method: as §1

HCC1143 = system: HCC1143
Summary of the method: as §1

Hs578T = system: Hs578T
Summary of the method: as §1

DU-4475 = system: DU-4475
Summary of the method: as §1

MCF-10A = system: MCF-10A
Summary of the method: as §1

COc1ccc(-c2cc3c(C)nc(N)nc3n([C@H]3CC[C@H](OCCO)CC3)c2=O)cn1 (1000 nM)
normalised response (BT-549): 115% | normalised response (CAL-85-1): 79.9% | normalised response (MDA-MB-231): 76.8% | normalised response (CAL-51): 43.9% | normalised response (MDA-MB-453): 84.2% | normalised response (MDA-MB-436): 113% | normalised response (MDA-MB-468): 123% | normalised response (HCC1937): -51.2% | normalised response (HCC1599): 90.4% | normalised response (HDQ-P1): 84.7% | normalised response (BT-474): 49.8% | normalised response (CAL-120): 98.5% | normalised response (HCC1143): 79.8% | normalised response (Hs578T): 101% | normalised response (DU-4475): 86.2% | normalised response (MCF-10A): 93.2%

COc1ccc(-c2cc3c(C)nc(N)nc3n([C@H]3CC[C@H](OCCO)CC3)c2=O)cn1 (10000 nM)
normalised response (BT-549): 0.06% | normalised response (CAL-85-1): 52.1% | normalised response (MDA-MB-231): 4.33% | normalised response (CAL-51): 17.6% | normalised response (MDA-MB-453): 61.1% | normalised response (MDA-MB-436): 100% | normalised response (MDA-MB-468): 59.9% | normalised response (HCC1937): 41.4% | normalised response (HCC1599): 92.1% | normalised response (HDQ-P1): -2.73% | normalised response (BT-474): -9.27% | normalised response (CAL-120): 75.8% | normalised response (HCC1143): 91.1% | normalised response (Hs578T): 28.7% | normalised response (DU-4475): 67.2% | normalised response (MCF-10A): 72.4%

O=C(Nc1c[nH]nc1-c1nc2ccc(CN3CCOCC3)cc2[nH]1)NC1CC1 [AT9283] (1000 nM)
normalised response (BT-549): 70.5% | normalised response (CAL-85-1): 37.8% | normalised response (MDA-MB-231): 40.6% | normalised response (CAL-51): 56% | normalised response (MDA-MB-453): 101% | normalised response (MDA-MB-436): 77.6% | normalised response (MDA-MB-468): 65.6% | normalised response (HCC1937): 116% | normalised response (HCC1599): 105% | normalised response (HDQ-P1): 88.2% | normalised response (BT-474): 89.1% | normalised response (CAL-120): 57.7% | normalised response (HCC1143): 119% | normalised response (Hs578T): 83.2% | normalised response (DU-4475): 106% | normalised response (MCF-10A): 88.4%

COc1cc(CCc2cc(NC(=O)c3ccc(N4CC(C)NC(C)C4)cc3)n[nH]2)cc(OC)c1 (stereo not given) [AZD4547] (100 nM)
normalised response (BT-549): 118% | normalised response (CAL-85-1): 108% | normalised response (MDA-MB-231): 90.1% | normalised response (CAL-51): 95.6% | normalised response (MDA-MB-453): 100% | normalised response (MDA-MB-436): 91% | normalised response (MDA-MB-468): 117% | normalised response (HCC1937): 113% | normalised response (HCC1599): 90.6% | normalised response (HDQ-P1): 89.4% | normalised response (BT-474): 96.5% | normalised response (CAL-120): 99.3% | normalised response (HCC1143): 82% | normalised response (Hs578T): 94% | normalised response (DU-4475): 97.8% | normalised response (MCF-10A): 105%

COc1cc(CCc2cc(NC(=O)c3ccc(N4CC(C)NC(C)C4)cc3)n[nH]2)cc(OC)c1 (stereo not given) [AZD4547] (1000 nM)
normalised response (BT-549): 90% | normalised response (CAL-85-1): 126% | normalised response (MDA-MB-231): 110% | normalised response (CAL-51): 96.6% | normalised response (MDA-MB-453): 103% | normalised response (MDA-MB-436): 95.4% | normalised response (MDA-MB-468): 190% | normalised response (HCC1937): 88.6% | normalised response (HCC1599): 100% | normalised response (BT-474): 99.9% | normalised response (CAL-120): 89.5% | normalised response (HCC1143): 59.4% | normalised response (Hs578T): 115% | normalised response (DU-4475): 98.5% | normalised response (MCF-10A): 63.9%

CCC/C=C/C=C/C(=O)O[C@H]1/C(=C/C(=O)OC)C[C@H]2C[C@H]([C@@H](C)O)OC(=O)C[C@H](O)C[C@@H]3C[C@H](OC(C)=O)C(C)(C)[C@](O)(C[C@@H]4C/C(=C/C(=O)OC)C[C@H](/C=C/C(C)(C)[C@]1(O)O2)O4)O3 [Bryostatin 1] (10 nM)
normalised response (BT-549): 139% | normalised response (CAL-85-1): 91.3% | normalised response (MDA-MB-231): 117% | normalised response (CAL-51): 92% | normalised response (MDA-MB-453): 99.9% | normalised response (MDA-MB-436): 74.1% | normalised response (MDA-MB-468): 116% | normalised response (HCC1937): 83.2% | normalised response (HCC1599): 115% | normalised response (BT-474): 106% | normalised response (CAL-120): 102% | normalised response (HCC1143): 116% | normalised response (Hs578T): 109% | normalised response (DU-4475): 106% | normalised response (MCF-10A): 109%

CCC/C=C/C=C/C(=O)O[C@H]1/C(=C/C(=O)OC)C[C@H]2C[C@H]([C@@H](C)O)OC(=O)C[C@H](O)C[C@@H]3C[C@H](OC(C)=O)C(C)(C)[C@](O)(C[C@@H]4C/C(=C/C(=O)OC)C[C@H](/C=C/C(C)(C)[C@]1(O)O2)O4)O3 [Bryostatin 1] (100 nM)
normalised response (BT-549): 122% | normalised response (CAL-85-1): 64.6% | normalised response (MDA-MB-231): 120% | normalised response (CAL-51): 104% | normalised response (MDA-MB-453): 104% | normalised response (MDA-MB-468): 150% | normalised response (HCC1599): 118% | normalised response (HDQ-P1): 73.7% | normalised response (BT-474): 93.1% | normalised response (CAL-120): 99.8% | normalised response (HCC1143): 53.9% | normalised response (Hs578T): 114% | normalised response (DU-4475): 112% | normalised response (MCF-10A): 103%

CO[C@@H](C(=O)N1Cc2[nH]nc(NC(=O)c3ccc(N4CCN(C)CC4)cc3)c2C1)c1ccccc1 [Danusertib] (1000 nM)
normalised response (BT-549): 112% | normalised response (CAL-85-1): 97.5% | normalised response (MDA-MB-231): 101% | normalised response (CAL-51): 57.8% | normalised response (MDA-MB-453): 84.9% | normalised response (MDA-MB-468): 51.4% | normalised response (HCC1937): 129% | normalised response (HCC1599): 104% | normalised response (HDQ-P1): 105% | normalised response (BT-474): 102% | normalised response (CAL-120): 94% | normalised response (HCC1143): 66.9% | normalised response (DU-4475): 97.3% | normalised response (MCF-10A): 110%

CO[C@@H](C(=O)N1Cc2[nH]nc(NC(=O)c3ccc(N4CCN(C)CC4)cc3)c2C1)c1ccccc1 [Danusertib] (10000 nM)
normalised response (BT-549): 53.1% | normalised response (CAL-85-1): 67.3% | normalised response (MDA-MB-231): 93.2% | normalised response (CAL-51): 22.9% | normalised response (MDA-MB-453): 112% | normalised response (MDA-MB-436): 75.7% | normalised response (MDA-MB-468): 55.9% | normalised response (HCC1599): 106% | normalised response (HDQ-P1): 48% | normalised response (BT-474): 91.6% | normalised response (CAL-120): 28.7% | normalised response (HCC1143): 127% | normalised response (Hs578T): -40.1% | normalised response (DU-4475): 102% | normalised response (MCF-10A): 57.6%

Cc1nc(Nc2ncc(C(=O)Nc3c(C)cccc3Cl)s2)cc(N2CCN(CCO)CC2)n1 [Dasatinib] (100 nM)
normalised response (BT-549): 85.9% | normalised response (CAL-85-1): 74% | normalised response (MDA-MB-231): 84.3% | normalised response (CAL-51): 68.4% | normalised response (MDA-MB-453): 97.2% | normalised response (MDA-MB-436): 107% | normalised response (MDA-MB-468): 101% | normalised response (HCC1937): 5.95% | normalised response (HCC1599): 95.6% | normalised response (HDQ-P1): 90.2% | normalised response (BT-474): 94.4% | normalised response (CAL-120): 97.2% | normalised response (HCC1143): 70.1% | normalised response (Hs578T): 90.8% | normalised response (DU-4475): 102% | normalised response (MCF-10A): 112%

Cc1nc(Nc2ncc(C(=O)Nc3c(C)cccc3Cl)s2)cc(N2CCN(CCO)CC2)n1 [Dasatinib] (1000 nM)
normalised response (BT-549): 39.7% | normalised response (CAL-85-1): 43.1% | normalised response (MDA-MB-231): 35% | normalised response (CAL-51): 75.6% | normalised response (MDA-MB-453): 92.5% | normalised response (MDA-MB-436): 97% | normalised response (MDA-MB-468): 99.7% | normalised response (HCC1937): 91.4% | normalised response (HCC1599): 102% | normalised response (HDQ-P1): 81.3% | normalised response (BT-474): 103% | normalised response (CAL-120): 100% | normalised response (HCC1143): 107% | normalised response (Hs578T): 5.15% | normalised response (DU-4475): 96.6% | normalised response (MCF-10A): 63%

Cc1c(CN2CCN(C(=O)[C@H](C)O)CC2)sc2c(N3CCOCC3)nc(-c3cnc(N)nc3)nc12 [GDC-0980] (1000 nM)
normalised response (BT-549): 108% | normalised response (CAL-85-1): 97.7% | normalised response (MDA-MB-231): 98.8% | normalised response (CAL-51): 90.8% | normalised response (MDA-MB-453): 104% | normalised response (MDA-MB-436): 102% | normalised response (MDA-MB-468): 117% | normalised response (HCC1937): 107% | normalised response (HCC1599): 99.9% | normalised response (HDQ-P1): 103% | normalised response (BT-474): 85.6% | normalised response (CAL-120): 103% | normalised response (HCC1143): 85% | normalised response (Hs578T): 107% | normalised response (DU-4475): 98.7% | normalised response (MCF-10A): 100%
